Reference: PubChem BioAssay (NCI)
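Growth conditions: 96-well plates. Treatment: test compound, 48 hours, 5 concentrations. Analysis: linear interpolation between bracketing concentrations; unreached endpoints set to highest concentration. TGI: concentration producing complete growth inhibition.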

Experiments:
Assay in all cases: NCI-60 cell line screen, 48 h
SF-539 CNS = system: SF-539 CNS
T-47D breast = system: T-47D breast
IGROV1 ovarian = system: IGROV1 ovarian
SR leukemia = system: SR leukemia
SF-295 CNS = system: SF-295 CNS
MDA-N = system: MDA-N
RXF 393 renal = system: RXF 393 renal
HOP-62 NSCLC = system: HOP-62 NSCLC
HOP-92 NSCLC = system: HOP-92 NSCLC
SF-268 CNS = system: SF-268 CNS
OVCAR-5 ovarian = system: OVCAR-5 ovarian
SK-MEL-28 melanoma = system: SK-MEL-28 melanoma
BT-549 breast = system: BT-549 breast
A549 NSCLC = system: A549 NSCLC
MDA-MB-231 breast = system: MDA-MB-231 breast
CCRF-CEM leukemia = system: CCRF-CEM leukemia
SK-MEL-5 melanoma = system: SK-MEL-5 melanoma
COLO 205 colon = system: COLO 205 colon
MDA-MB-435 = system: MDA-MB-435
786-0 renal = system: 786-0 renal
UO-31 renal = system: UO-31 renal
HS 578T breast = system: HS 578T breast
NCI-H522 lung = system: NCI-H522 lung
SN12C renal = system: SN12C renal
RPMI-8226 leukemia = system: RPMI-8226 leukemia
UACC-257 melanoma = system: UACC-257 melanoma
EKVX NSCLC = system: EKVX NSCLC
CAKI-1 renal = system: CAKI-1 renal
OVCAR-4 ovarian = system: OVCAR-4 ovarian
SW-620 colon = system: SW-620 colon
HCT-116 colon = system: HCT-116 colon
OVCAR-3 ovarian = system: OVCAR-3 ovarian
SNB-75 CNS = system: SNB-75 CNS
NCI-H226 lung = system: NCI-H226 lung
DU-145 prostate = system: DU-145 prostate
MOLT-4 leukemia = system: MOLT-4 leukemia
SK-MEL-2 melanoma = system: SK-MEL-2 melanoma
KM12 colon = system: KM12 colon
NCI-H23 lung = system: NCI-H23 lung
TK-10 renal = system: TK-10 renal
K-562 leukemia = system: K-562 leukemia
NCI/ADR-RES ovarian = system: NCI/ADR-RES ovarian
HCC-2998 colon = system: HCC-2998 colon
MALME-3M melanoma = system: MALME-3M melanoma
HT29 colon = system: HT29 colon
OVCAR-8 ovarian = system: OVCAR-8 ovarian
HL-60(TB) leukemia = system: HL-60(TB) leukemia
U251 CNS = system: U251 CNS
LOX IMVI melanoma = system: LOX IMVI melanoma
NCI-H460 lung = system: NCI-H460 lung
SK-OV-3 ovarian = system: SK-OV-3 ovarian
M14 melanoma = system: M14 melanoma
SNB-19 CNS = system: SNB-19 CNS
HCT-15 colon = system: HCT-15 colon
ACHN renal = system: ACHN renal
A498 renal = system: A498 renal
MCF7 breast = system: MCF7 breast
PC-3 prostate = system: PC-3 prostate
UACC-62 melanoma = system: UACC-62 melanoma

In the case of CCN(CC)S(=O)(=O)c1ccc2nc(NC(=O)OC)[nH]c2c1, the TGI (SF-539 CNS) is reported as 74.3 µM, the TGI (T-47D breast) is reported as over 100 µM and the TGI (IGROV1 ovarian) is reported as over 100 µM. For the same molecule, the TGI (SR leukemia) was 83.9 µM, the TGI (SF-295 CNS) was over 100 µM and the TGI (MDA-N) was 65.9 µM. For the same molecule, the TGI (RXF 393 renal) was over 100 µM, the TGI (HOP-62 NSCLC) was over 100 µM and the TGI (HOP-92 NSCLC) was over 100 µM. For the same molecule, the TGI (SF-268 CNS) was over 100 µM, the TGI (OVCAR-5 ovarian) was over 100 µM and the TGI (SK-MEL-28 melanoma) was over 100 µM. For the same molecule, the TGI (BT-549 breast) was over 100 µM, the TGI (A549 NSCLC) was over 100 µM and the TGI (MDA-MB-231 breast) was over 100 µM. For the same molecule, the TGI (CCRF-CEM leukemia) was over 100 µM, the TGI (SK-MEL-5 melanoma) was over 100 µM and the TGI (COLO 205 colon) was over 100 µM. The TGI (MDA-MB-435) was 36.8 µM, the TGI (786-0 renal) was over 100 µM and the TGI (UO-31 renal) was over 100 µM. The TGI (HS 578T breast) was over 100 µM, the TGI (NCI-H522 lung) was over 100 µM and the TGI (SN12C renal) was over 100 µM. It also gave a TGI (RPMI-8226 leukemia) of 47.1 µM, a TGI (UACC-257 melanoma) of over 100 µM and a TGI (EKVX NSCLC) of over 100 µM. The TGI (CAKI-1 renal) was over 100 µM, the TGI (OVCAR-4 ovarian) was over 100 µM and the TGI (SW-620 colon) was over 100 µM. For the same molecule, the TGI (HCT-116 colon) was over 100 µM, the TGI (OVCAR-3 ovarian) was over 100 µM and the TGI (SNB-75 CNS) was over 100 µM. For the same molecule, the TGI (NCI-H226 lung) was over 100 µM, the TGI (DU-145 prostate) was over 100 µM and the TGI (MOLT-4 leukemia) was 61.7 µM. The TGI (SK-MEL-2 melanoma) was over 100 µM, the TGI (KM12 colon) was over 100 µM and the TGI (NCI-H23 lung) was over 100 µM. The TGI (TK-10 renal) was over 100 µM, the TGI (K-562 leukemia) was over 100 µM and the TGI (NCI/ADR-RES ovarian) was over 100 µM. It also gave a TGI (HCC-2998 colon) of over 100 µM, a TGI (MALME-3M melanoma) of over 100 µM and a TGI (HT29 colon) of over 100 µM. It also gave a TGI (OVCAR-8 ovarian) of over 100 µM, a TGI (HL-60(TB) leukemia) of 63.4 µM and a TGI (U251 CNS) of over 100 µM. For the same molecule, the TGI (LOX IMVI melanoma) was over 100 µM, the TGI (NCI-H460 lung) was over 100 µM and the TGI (SK-OV-3 ovarian) was over 100 µM. For the same molecule, the TGI (M14 melanoma) was over 100 µM, the TGI (SNB-19 CNS) was over 100 µM and the TGI (HCT-15 colon) was over 100 µM.
COC(=O)c1c(O)c2c(c3c1OC(C)(C)CC3)OC(C)(C)CC2 showed a TGI (SF-539 CNS) of 36 µM, a TGI (T-47D breast) of 39.5 µM and a TGI (IGROV1 ovarian) of 42.8 µM. The TGI (SF-295 CNS) was 32.2 µM, the TGI (MDA-N) was 51.9 µM and the TGI (ACHN renal) was 32.3 µM. The TGI (A498 renal) was 34.4 µM, the TGI (HOP-62 NSCLC) was 42.7 µM and the TGI (SF-268 CNS) was 60.7 µM. For the same molecule, the TGI (OVCAR-5 ovarian) was 35.2 µM, the TGI (SK-MEL-28 melanoma) was 68.8 µM and the TGI (BT-549 breast) was 37.2 µM. It also gave a TGI (A549 NSCLC) of 42.7 µM, a TGI (MDA-MB-231 breast) of 30 µM and a TGI (CCRF-CEM leukemia) of 55.6 µM. For the same molecule, the TGI (SK-MEL-5 melanoma) was 28.2 µM, the TGI (COLO 205 colon) was 28.2 µM and the TGI (786-0 renal) was 31.1 µM. The TGI (UO-31 renal) was 37.4 µM, the TGI (HS 578T breast) was 47.2 µM and the TGI (NCI-H522 lung) was 34.2 µM. The TGI (SN12C renal) was 32.6 µM, the TGI (UACC-257 melanoma) was 50.8 µM and the TGI (EKVX NSCLC) was 45.8 µM. It also gave a TGI (CAKI-1 renal) of 53.9 µM, a TGI (OVCAR-4 ovarian) of 97.7 µM and a TGI (SW-620 colon) of 32.1 µM. It also gave a TGI (HCT-116 colon) of 30.4 µM, a TGI (OVCAR-3 ovarian) of 36.3 µM and a TGI (NCI-H226 lung) of 35.9 µM. The TGI (DU-145 prostate) was 74.7 µM, the TGI (MOLT-4 leukemia) was 56.1 µM and the TGI (KM12 colon) was 31.6 µM. For the same molecule, the TGI (NCI-H23 lung) was 43.4 µM, the TGI (K-562 leukemia) was 69.8 µM and the TGI (NCI/ADR-RES ovarian) was 56.2 µM. For the same molecule, the TGI (HCC-2998 colon) was 31.2 µM, the TGI (MALME-3M melanoma) was 20.9 µM and the TGI (HT29 colon) was 31.4 µM. For the same molecule, the TGI (OVCAR-8 ovarian) was 33.3 µM, the TGI (HL-60(TB) leukemia) was 40.3 µM and the TGI (U251 CNS) was 29.6 µM. It also gave a TGI (MCF7 breast) of 33.1 µM, a TGI (NCI-H460 lung) of 50.6 µM and a TGI (SK-OV-3 ovarian) of 77.1 µM. For the same molecule, the TGI (PC-3 prostate) was 35.7 µM, the TGI (UACC-62 melanoma) was 40 µM and the TGI (M14 melanoma) was 41 µM. For the same molecule, the TGI (SNB-19 CNS) was 34.9 µM and the TGI (HCT-15 colon) was 35.5 µM.
CC(C1CCCC1=O)C1CCCC1=O (stereo not drawn) showed a TGI (SF-539 CNS) of over 100 µM, a TGI (T-47D breast) of over 100 µM and a TGI (IGROV1 ovarian) of over 100 µM. The TGI (SR leukemia) was over 100 µM, the TGI (SF-295 CNS) was over 100 µM and the TGI (MDA-N) was over 100 µM. For the same molecule, the TGI (ACHN renal) was over 100 µM, the TGI (RXF 393 renal) was over 100 µM and the TGI (HOP-62 NSCLC) was over 100 µM. For the same molecule, the TGI (SF-268 CNS) was over 100 µM, the TGI (OVCAR-5 ovarian) was over 100 µM and the TGI (SK-MEL-28 melanoma) was over 100 µM. The TGI (BT-549 breast) was over 100 µM, the TGI (A549 NSCLC) was over 100 µM and the TGI (MDA-MB-231 breast) was over 100 µM. It also gave a TGI (CCRF-CEM leukemia) of over 100 µM, a TGI (SK-MEL-5 melanoma) of over 100 µM and a TGI (COLO 205 colon) of over 100 µM. It also gave a TGI (786-0 renal) of over 100 µM, a TGI (UO-31 renal) of over 100 µM and a TGI (HS 578T breast) of over 100 µM. It also gave a TGI (NCI-H522 lung) of over 100 µM, a TGI (SN12C renal) of over 100 µM and a TGI (UACC-257 melanoma) of over 100 µM. For the same molecule, the TGI (EKVX NSCLC) was over 100 µM, the TGI (CAKI-1 renal) was over 100 µM and the TGI (OVCAR-4 ovarian) was over 100 µM. It also gave a TGI (SW-620 colon) of over 100 µM, a TGI (HCT-116 colon) of over 100 µM and a TGI (SNB-75 CNS) of over 100 µM. The TGI (NCI-H226 lung) was over 100 µM, the TGI (DU-145 prostate) was over 100 µM and the TGI (MOLT-4 leukemia) was over 100 µM. For the same molecule, the TGI (SK-MEL-2 melanoma) was over 100 µM, the TGI (KM12 colon) was over 100 µM and the TGI (NCI-H23 lung) was over 100 µM. It also gave a TGI (TK-10 renal) of over 100 µM, a TGI (K-562 leukemia) of over 100 µM and a TGI (NCI/ADR-RES ovarian) of over 100 µM. For the same molecule, the TGI (HCC-2998 colon) was over 100 µM, the TGI (MALME-3M melanoma) was over 100 µM and the TGI (HT29 colon) was over 100 µM. It also gave a TGI (OVCAR-8 ovarian) of over 100 µM, a TGI (HL-60(TB) leukemia) of over 100 µM and a TGI (U251 CNS) of over 100 µM. For the same molecule, the TGI (LOX IMVI melanoma) was over 100 µM, the TGI (MCF7 breast) was over 100 µM and the TGI (NCI-H460 lung) was over 100 µM. The TGI (SK-OV-3 ovarian) was over 100 µM, the TGI (PC-3 prostate) was over 100 µM and the TGI (UACC-62 melanoma) was over 100 µM. The TGI (M14 melanoma) was over 100 µM, the TGI (SNB-19 CNS) was over 100 µM and the TGI (HCT-15 colon) was over 100 µM.
